According to US11191772B2, “Use” (DSM IP ASSETS B.V., priority 2017, dated 2021):

How the values were obtained:
Test in all cases: Antimicrobial efficacy challenge test (in analogy to NF EN ISO11930)
C. albicans = assay type: cell-based, Candida albicans; settings: Erythrulose 0.4 wt.-%, 24 h after contamination, 22° C., 0 h count 19000
Method: (§1) The antimicrobial efficacy is assessed in analogy to the regulatory challenge test method (NF EN ISO11930). Thus, a solution of Erythrulose from DSM Nutritional products in two different concentrations was prepared under sterile conditions. For this the Erythrulose was solubilized in physiological serum with 0.85 wt.-% NaCl. Phenoxyethanol was solubilized in a physiological serum with 0.85 wt.-% NaCl further comprising 5 wt.-% ethanol to ensure solubility. The solutions were deposed in 96-deep well plates (1.6 ml/well). The wells were contaminated with the respective bacterial or the fungal strains at 1.9*10^5 to 8.1*10^5 cfu/ml for the bacteria and 3.3*10^3 to 3.8*10^4 cfu/ml for the fungi to obtain the initial contamination as outlined in table 1 and 2. After contamination each well was thoroughly mixed to ensure a homogeneous distribution of the microorganism. Then each plate was incubated at 22° C. for 24 h. The counting of the (remaining) population was carried out 24 h after contamination.

Corynebacterium xerosis = assay type: cell-based; settings: for colony counts 24 h: 22° C.
Method: as §1

Propionibacterium acnes = assay type: cell-based; settings: for colony counts 24 h: 22° C.
Method: as §1

[1] = test system: Staphylococcus epidermidis; assay type: cell-based; settings: for colony counts 24 h: 22° C.
Method: as §1

Pseudomonas aeruginosa = assay type: cell-based; settings: for colony counts 24 h: 22° C.
Method: as §1

Aspergillus brasiliensis = assay type: cell-based; settings: 22° C.
Method: as §1

Escherichia coli = assay type: cell-based; settings: for colony counts 24 h: 22° C.
Method: as §1

S. aureus = assay type: cell-based, Staphylococcus aureus; settings: Erythrulose 0.4 wt.-%, 24 h after contamination, 22° C., 0 h count 190000
Method: as §1

With `O=C(CO)[C@H](O)CO` (racemic) [Erythrulose, erythrulose] the “colony counts 24 h” value (C. albicans) was 78 cfu/ml, the “antimicrobial activity (in words)” value (Corynebacterium xerosis; C. xerosis, very low concentration (table 2, 0.08%)) was “particularly and selectively active” and the “colony counts 24 h” value (Corynebacterium xerosis; Erythrulose 0.08% active, Corynebacterium xerosis, 24 h, t0 count 250000) was 55 cfu/ml. For the same molecule, the “colony counts 24 h” value (Corynebacterium xerosis; Erythrulose 0.4 wt.-%, C. xerosis, 24 h after contamination, 0 h count 810000) was 0 cfu/ml, the “colony counts 24 h” value (Propionibacterium acnes; Erythrulose 0.08% active, Propionibacterium acnes, 24 h, t0 count 310000) was 3300 cfu/ml and the “colony counts 24 h” value (Propionibacterium acnes; Erythrulose 0.4 wt.-%, P. Acnes, 24 h after contamination, 0 h count 500000) was 55000 cfu/ml. The “antimicrobial activity (in words)” value (Propionibacterium acnes; P. acnes, very low concentration (table 2, 0.08%)) was “good antimicrobial activity”, the “colony counts 24 h” value ([1]; Erythrulose 0.08% active, Staphylococcus epidermidis, 24 h, t0 count 560000) was 0 cfu/ml and the “colony counts 24 h” value ([1]; Erythrulose 0.4 wt.-%, S. epidermidis, 24 h after contamination, 0 h count 500000) was 0 cfu/ml. The “antimicrobial activity (in words)” value ([1]; S. epidermidis, very low concentration (table 2, 0.08%)) was “particularly and selectively active”, the “colony counts 24 h” value (Pseudomonas aeruginosa; Erythrulose 0.08% active, Pseudomonas aeruginosa, 24 h, t0 count 450000) was 530000 cfu/ml and the “colony counts 24 h” value (Pseudomonas aeruginosa; Erythrulose 0.4 wt.-%, P. aeruginosa, 24 h after contamination, 0 h count 810000) was 0 cfu/ml. For the same molecule, the “antimicrobial activity (in words)” value (Pseudomonas aeruginosa; P. aeruginosa, very low concentration (table 2, 0.08%)) was “not active anymore”, the “colony counts 24 h” value (Aspergillus brasiliensis; Erythrulose 0.08% active, Aspergillus brasiliensis, 24 h, t0 count 10000) was 10 cfu/ml and the “colony counts 24 h” value (Aspergillus brasiliensis; Erythrulose 0.4 wt.-%, A. brasiliensis, 24 h after contamination, 0 h count 38000) was 330 cfu/ml. For the same molecule, the “antimicrobial activity (in words)” value (Escherichia coli; E. coli, very low concentration (table 2, 0.08%)) was “not active anymore”, the “colony counts 24 h” value (Escherichia coli; Erythrulose 0.08% active, Escherichia coli, 24 h, t0 count 250000) was 530000 cfu/ml and the “colony counts 24 h” value (Escherichia coli; Erythrulose 0.4 wt.-%, E. coli, 24 h after contamination, 0 h count 440000) was 280000 cfu/ml. The “colony counts 24 h” value (S. aureus) was 0 cfu/ml.
